Patent US6737383B1, “Herbicidal oxadiazolidines” (priority 1999, dated 2004)

Columns and labels:
pigweed = test: Test B pre/postemergence pigweed; type: in vivo, Amaranthus retroflexus
In short: (§1)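 Herbicidal effect was estimated by eye on a ten-point control scale after plants spent twelve to sixteen days in a greenhouse following soil or foliar treatment. Foliar sprays targeted plants at one to four leaves; all doses were formulated in a non-phytotoxic solvent with surfactant.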

wheat = test: Test B pre/postemergence wheat; type: in vivo, Triticum aestivum
In short: as §1

bamyardgrass = test: Test B flood test barnyardgrass; type: in vivo, Echinochloa crus-galli; settings: flood test species
In short: (§2)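 Plants were grown to the 2-leaf stage before treatment with test chemical, then held in a greenhouse for twelve to sixteen days. Injury was visually rated against untreated controls on a 0–10 scale, where 0 is no effect and 10 is complete control.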

morningglory = test: Test B pre/postemergence morningglory; type: in vivo, Ipomoea hederacea
In short: as §1

smallflower flatsedge = test: Test B flood test smallflower flatsedge; type: in vivo, Cyperus difformis; settings: flood test species
In short: as §2

bedstraw = test: Test B pre/postemergence bedstraw; type: in vivo, Galium aparine; settings: Postemergence, Rate 500 g/ha; scale of 0 to 10 where 0 is no effect and 10 is complete control
In short: as §1

duck salad = test: Test B flood test duck salad; type: in vivo, Heteranthera limosa; settings: flood test species
In short: as §2

corn = test: Test B pre/postemergence corn; type: in vivo, Zea mays
In short: as §1

blackgrass = test: Test B pre/postemergence blackgrass; type: in vivo, Alopecurus myosuroides
In short: as §1

cocklebur = test: Test B pre/postemergence cocklebur; type: in vivo, Xanthium strumarium
In short: as §1

rape = test: Test B pre/postemergence rape; type: in vivo, Brassica napus
In short: as §1

sugar beet = test: Test B pre/postemergence sugar beet; type: in vivo, Beta vulgaris
In short: as §1

wild oat = test: Test B pre/postemergence wild oat; type: in vivo, Avena fatua
In short: as §1

purple nutsedge = test: Test B pre/postemergence purple nutsedge; type: in vivo, Cyperus rotundus
In short: as §1

surinam grass = test: Test B pre/postemergence surinam grass; type: in vivo, Brachiaria decumbens
In short: as §1

velvetleaf = test: Test B pre/postemergence velvetleaf; type: in vivo, Abutilon theophrasti
In short: as §1

crabgrass = test: Test B pre/postemergence crabgrass; type: in vivo, Digitaria sanguinalis
In short: as §1

soybean = test: Test B pre/postemergence soybean; type: in vivo, Glycine max
In short: as §1

giant foxtail = test: Test B pre/postemergence giant foxtail; type: in vivo, Setaria faberii
In short: as §1

rice = test: Test B flood test rice; type: in vivo, Oryza sativa; settings: flood test species
In short: as §2

[1] = Postemergence, Rate 250 g/ha, scale 0 to 10, 0 is no effect, 10 is complete control
[2] = Postemergence, Rate 500 g/ha, scale of 0 to 10 where 0 is no effect and 10 is complete control
[3] = Preemergence, Rate 62 g/ha, scale 0 to 10 (0 no effect, 10 complete control)
[4] = Preemergence, Rate 125 g/ha, scale of 0 to 10 where 0 is no effect and 10 is complete control
[5] = Preemergence, Rate 250 g/ha, scale 0 to 10, 0 is no effect, 10 is complete control
[6] = Preemergence, Rate 500 g/ha, scale 0 to 10, 0 is no effect, 10 is complete control
[7] = Rate 62 g/ha, Pre-emergence, visual evaluation after twelve to sixteen days
[8] = Rate 125 g/ha, under heading Pre-emergence, visual evaluation after twelve to sixteen days
[9] = Rate 500 g/ha, Pre-emergence, scale 0 to 10 (0 no effect, 10 complete control)
[10] = Postemergence, Rate 125 g/ha, scale 0 to 10, 0 is no effect, 10 is complete control
[11] = Rate 62 g/ha, Postemergence, scale of 0 to 10 where 0 is no effect and 10 is complete control
[12] = Preemergence, Rate 250 g/ha, scale of 0 to 10 where 0 is no effect and 10 is complete control

With `CC(C)Cn1c(=O)on(C(=O)N(c2ccccc2)C(C)C)c1=O` [Compound 410] the “Plant response rating, Redroot pigweed” value (pigweed; [1]) was 0, the “Redroot pigweed plant response rating” value (pigweed; [2]) was 2 and the “Plant response rating, Redroot pigweed” value (pigweed; [3]) was 0. For the same molecule, the “Plant response rating, Redroot pigweed” value (pigweed; [4]) was 0, the “Redroot pigweed plant response rating” value (pigweed; [5]) was 2 and the “Redroot pigweed plant response rating” value (pigweed; [6]) was 8. The “Wheat plant response rating” value (wheat; [2]) was 4, the “Plant response rating, Wheat” value (wheat; [3]) was 0 and the “Plant response rating, Wheat” value (wheat; [4]) was 3. The “Wheat plant response rating” value (wheat; [5]) was 7, the “Wheat plant response rating” value (wheat; [6]) was 8 and the “Plant response rating, Barnyardgrass (0 to 10 scale, 0 is no effect, 10 is complete control)” value (bamyardgrass; [7]) was 0. For the same molecule, the “Barnyardgrass plant response rating (0 to 10 scale, 0 is no effect, 10 is complete control)” value (bamyardgrass; [8]) was 4, the “Barnyardgrass plant response rating” value (bamyardgrass; [9]) was 9 and the “Plant response rating, Morningglory” value (morningglory; [1]) was 8. The “Morningglory plant response rating” value (morningglory; [2]) was 8, the “Plant response rating, Morningglory” value (morningglory; [3]) was 0 and the “Plant response rating, Morningglory” value (morningglory; [4]) was 0. The “Morningglory plant response rating” value (morningglory; [5]) was 0, the “Morningglory plant response rating” value (morningglory; [6]) was 0 and the “Plant response rating, S. Flatsedge (0 to 10 scale, 0 is no effect, 10 is complete control)” value (smallflower flatsedge; [7]) was 3. The “S. Flatsedge plant response rating (0 to 10 scale, 0 is no effect, 10 is complete control)” value (smallflower flatsedge; [8]) was 3, the “S. Flatsedge plant response rating” value (smallflower flatsedge; [9]) was 9 and the “Bedstraw plant response rating” value (bedstraw) was 7. For the same molecule, the “Plant response rating, Ducksalad (0 to 10 scale, 0 is no effect, 10 is complete control)” value (duck salad; [7]) was 0, the “Ducksalad plant response rating (0 to 10 scale, 0 is no effect, 10 is complete control)” value (duck salad; [8]) was 0 and the “Ducksalad plant response rating” value (duck salad; [9]) was 2. For the same molecule, the “Plant response rating, Corn” value (corn; [10]) was 0, the “Plant response rating, Corn” value (corn; [1]) was 0 and the “Corn plant response rating” value (corn; [2]) was 3. The “Plant response rating, Corn” value (corn; [3]) was 0, the “Plant response rating, Corn” value (corn; [4]) was 0 and the “Corn plant response rating” value (corn; [5]) was 4. For the same molecule, the “Corn plant response rating” value (corn; [6]) was 9, the “Corn plant response rating” value (corn; [11]) was 0 and the “Plant response rating, Blackgrass” value (blackgrass; [10]) was 8. The “Plant response rating, Blackgrass” value (blackgrass; [1]) was 9, the “Blackgrass plant response rating” value (blackgrass; [2]) was 9 and the “Plant response rating, Blackgrass” value (blackgrass; [3]) was 3. The “Plant response rating, Blackgrass” value (blackgrass; [4]) was 8, the “Blackgrass plant response rating” value (blackgrass; [12]) was 8 and the “Blackgrass plant response rating” value (blackgrass; [6]) was 10. The “Plant response rating, Cocklebur” value (cocklebur; [10]) was 0, the “Plant response rating, Cocklebur” value (cocklebur; [1]) was 0 and the “Cocklebur plant response rating” value (cocklebur; [2]) was 1. For the same molecule, the “Plant response rating, Cocklebur” value (cocklebur; [3]) was 0, the “Plant response rating, Cocklebur” value (cocklebur; [4]) was 0 and the “Cocklebur plant response rating” value (cocklebur; [5]) was 0. For the same molecule, the “Cocklebur plant response rating” value (cocklebur; [6]) was 0, the “Cocklebur plant response rating” value (cocklebur; [11]) was 0 and the “Plant response rating, Rape” value (rape; [1]) was 7. The “Rape plant response rating” value (rape; [2]) was 7, the “Plant response rating, Rape” value (rape; [3]) was 0 and the “Plant response rating, Rape” value (rape; [4]) was 0. For the same molecule, the “Rape plant response rating” value (rape; [5]) was 2, the “Rape plant response rating” value (rape; [6]) was 8 and the “Plant response rating, Sugarbeets” value (sugar beet; [1]) was 7. For the same molecule, the “Sugarbeets plant response rating” value (sugar beet; [2]) was 8, the “Plant response rating, Sugarbeets” value (sugar beet; [3]) was 0 and the “Plant response rating, Sugarbeets” value (sugar beet; [4]) was 0. The “Sugarbeets plant response rating” value (sugar beet; [5]) was 0, the “Sugarbeets plant response rating” value (sugar beet; [6]) was 0 and the “Wild oats plant response rating” value (wild oat; [2]) was 5. The “Plant response rating, Wild oats” value (wild oat; [3]) was 3, the “Plant response rating, Wild oats” value (wild oat; [4]) was 6 and the “Wild oats plant response rating” value (wild oat; [5]) was 7. The “Wild oats plant response rating” value (wild oat; [6]) was 10, the “Plant response rating, Nutsedge” value (purple nutsedge; [1]) was 0 and the “Nutsedge plant response rating” value (purple nutsedge; [2]) was 0. The “Plant response rating, Nutsedge” value (purple nutsedge; [3]) was 0, the “Plant response rating, Nutsedge” value (purple nutsedge; [4]) was 0 and the “Nutsedge plant response rating” value (purple nutsedge; [5]) was 0. For the same molecule, the “Plant response rating, B. signalgrass” value (surinam grass; [10]) was 0, the “Plant response rating, B. signalgrass” value (surinam grass; [1]) was 5 and the “B. signalgrass plant response rating” value (surinam grass; [2]) was 7. The “Plant response rating, B. signalgrass” value (surinam grass; [3]) was 1, the “Plant response rating, B. signalgrass” value (surinam grass; [4]) was 5 and the “B. signalgrass plant response rating” value (surinam grass; [12]) was 7. The “B. signalgrass plant response rating” value (surinam grass; Preemergence, Rate 500 g/ha, scale of 0 to 10 where 0 is no effect and 10 is complete control) was 10, the “B. signalgrass plant response rating” value (surinam grass; [11]) was 0 and the “Plant response rating, Velvetleaf” value (velvetleaf; [1]) was 0. For the same molecule, the “Velvetleaf plant response rating” value (velvetleaf; [2]) was 0, the “Plant response rating, Velvetleaf” value (velvetleaf; [3]) was 3 and the “Plant response rating, Velvetleaf” value (velvetleaf; [4]) was 4. The “Velvetleaf plant response rating” value (velvetleaf; [5]) was 6, the “Velvetleaf plant response rating” value (velvetleaf; [6]) was 8 and the “Plant response rating, Crabgrass” value (crabgrass; [10]) was 4. The “Plant response rating, Crabgrass” value (crabgrass; [1]) was 8, the “Crabgrass plant response rating” value (crabgrass; [2]) was 10 and the “Plant response rating, Crabgrass” value (crabgrass; [3]) was 7. The “Plant response rating, Crabgrass” value (crabgrass; [4]) was 9, the “Crabgrass plant response rating” value (crabgrass; [5]) was 10 and the “Crabgrass plant response rating” value (crabgrass; [6]) was 10. For the same molecule, the “Crabgrass plant response rating” value (crabgrass; [11]) was 4, the “Plant response rating, Soybean” value (soybean; [1]) was 5 and the “Soybean plant response rating” value (soybean; [2]) was 6. The “Plant response rating, Soybean” value (soybean; [3]) was 0, the “Plant response rating, Soybean” value (soybean; [4]) was 0 and the “Soybean plant response rating” value (soybean; [5]) was 0. The “Soybean plant response rating” value (soybean; [6]) was 3, the “Plant response rating, Giant foxtail” value (giant foxtail; [10]) was 9 and the “Plant response rating, Giant foxtail” value (giant foxtail; [1]) was 9. For the same molecule, the “Giant foxtail plant response rating” value (giant foxtail; [2]) was 9, the “Plant response rating, Giant foxtail” value (giant foxtail; [3]) was 9 and the “Plant response rating, Giant foxtail” value (giant foxtail; [4]) was 9. The “Giant foxtail plant response rating” value (giant foxtail; [5]) was 10, the “Giant foxtail plant response rating” value (giant foxtail; [6]) was 10 and the “Giant foxtail plant response rating” value (giant foxtail; [11]) was 8. The “Plant response rating, Rice (0 to 10 scale, 0 is no effect, 10 is complete control)” value (rice; [7]) was 0, the “Rice plant response rating (0 to 10 scale, 0 is no effect, 10 is complete control)” value (rice; [8]) was 0 and the “Rice plant response rating” value (rice; [9]) was 5.
